Here are results for one compound from patent publication US8518953B2, “Aminopyrimidines useful as inhibitors of protein kinases” (Vertex Pharmaceuticals Incorporated, priority 2007, dated 2013).

Experiment [1] deals with human umbilical vein endothelial cells (HUVEC). Kind of experiment: In Vitro Model of Angiogenesis Using HUVEC and Skin Fibroblasts. The format is cell-based. Particulars: HUVEC cultures. An excerpt:
Compounds are screened for the ability to enhance angiogenesis in human umbilical vein endothelial cells (HUVEC). This method, adapted from Nakatsu et al. Microvas. Res. 2003, describes a protocol that recapitulates the major events essential for new vessel growth: budding, cell migration, cell proliferation, lumen formation, branching, and anastomosis. HUVEC are used between P3 and P4. HUVEC are mixed with dextran coated cytodex 3 micro-carriers (Amersham Pharmacia) at a concentration of 400 HUVEC per bead in 1 ml of EGM-2 (2% FBS) medium (Clonetics). Beads with cells are then shaken gently every 20 min for 4 hr at 37° C. and 5% CO2. After incubating, beads with cells are transferred to a T-25 tissue culture flask and left for 12-16 hr in 5 ml of EGM-2 at 37° C. 5% CO2. The following day beads with cells are washed three times with EGM-2 and re-suspended at a concentration of 200 cell-coated beads/ml in 2.5 mg/ml of fibrinogen (Sigma) with 0.15 U/ml of aprotinin (Sigma) at a pH of 7.4. 500 ul of fibrinogen/bead solution is then added to 0.625 U of thrombin (Sigma) in one well of a 24 well tissue culture plate. Fibrinogen/Bead solution is allowed to clot for 5 min at room temperature and then at 37° C. 5% CO2 for 20 min. 1 ml of EGM-2 with 0.15 U/ml of aprotinin is then added to each well and equilibrated with the fibrin clot for 30 min at 37° C. and 5% CO2. Next, media is removed from the well and replaced with 1 ml of fresh medium. 20,000 skin fibroblasts (SF ATCC Detroit 551) are plated on top of the clot and medium is changed every other day. […] Angiogenesis is scored by quantification of images captured on an inverted microscope at 10× and 20× magnification for vessel length, number of vessels and branches per bead using NIH Image J software. […] YFP positive HUVEC are then cultured as described above and quantification of vessel formation is determined by calculating the area under the threshold fluorescence using NIH Image J software. In both cases, enhanced angiogenesis is determined by comparing compound treated cultures with a DMSO control culture at the same time point.

The test system of another experiment is rats subjected to MCAO. The experiment is described as follows: Post Stroke Recovery MCAO Model: Tray Reaching. The format is in vivo, rat. As to conditions: 7 and 14 days after stroke, compared with vehicle treatment. An excerpt: Adult male Wistar rats are pre-trained on a battery of behavioral tests including: tray reach, gridwalk, forelimb asymmetry (cylinder bracing), forelimb inhibition (swim test) (see below for detailed description of tests). Following pre-stroke behavioral assessment the rats receive surgery during which a stroke is induced. The rats are pseudo-randomly divided into 5 equal groups (n=12) ensuring an equal number of right and left strokes within each treatment group. The first group receives sham surgery with vehicle as treatment. Administration of the test compound and vehicle (dose, route, timing) is determined by the sponsor. The core body temperature is maintained at 37° C. (+/−1°).
Following surgery all animals are behaviorally assessed 1, 7, and 14 d post-stroke. At the conclusion of behavioral assessment all rats undergo an MRI to determine infarct volume. […]
Each animal is weighed (average weights were 340 g) and then anesthetized with isoflurane (4% isoflurane carried on 2 l/min medical grade oxygen to induce surgical plane and then 2% with 2 l/min oxygen to maintain a surgical plane). […] Rectal temperature is monitored and maintained at 37 C+/−1° C. for the duration of the surgery and until the rat is awake and mobile (approximately 3 hr). […]
Forepaw use is measured with a procedure that is adapted from the method devised by Whishaw, O'Connor, and Dunnett (1986). […]

Setting [2] is: concentrations that have been shown to induce β-catenin.

On to `Cc1nc(-c2ccccc2Cl)nc(Nc2n[nH]c3ncc(F)cc23)c1C` [Compound I-1, N-(2-(2-chlorophenyl)-5,6-dimethylpyrimidin-4-yl)-5-fluoro-1H-pyrazolo[3,4-b]pyridin-3-amine], for which the “vessel and network formation” value in experiment [1] (10 nM, 7 days) is “increase vessel and network formation”. For the same compound, in experiment [1] (setting [2]), the cell proliferation result is listed as “increased cell proliferation was observed” and the vessel formation result is on record as “vessel formation was inhibited”. The “deficit in reaching performance (tray reaching)” value in the experiment on rats subjected to MCAO is on record as “significantly ameliorated this deficit”.
